Data: BindingDB's records for doi:10.1016/S0960-894X(01)80421-2 (1993)

Target: Chorismate synthase (Escherichia coli) (UniProt P12008)
Experiment: Compound was evaluated for the binding affinity towards Escherichia coli chorismate synthase

Sequence of Chorismate synthase (Escherichia coli) (P12008 whole entry, looked up): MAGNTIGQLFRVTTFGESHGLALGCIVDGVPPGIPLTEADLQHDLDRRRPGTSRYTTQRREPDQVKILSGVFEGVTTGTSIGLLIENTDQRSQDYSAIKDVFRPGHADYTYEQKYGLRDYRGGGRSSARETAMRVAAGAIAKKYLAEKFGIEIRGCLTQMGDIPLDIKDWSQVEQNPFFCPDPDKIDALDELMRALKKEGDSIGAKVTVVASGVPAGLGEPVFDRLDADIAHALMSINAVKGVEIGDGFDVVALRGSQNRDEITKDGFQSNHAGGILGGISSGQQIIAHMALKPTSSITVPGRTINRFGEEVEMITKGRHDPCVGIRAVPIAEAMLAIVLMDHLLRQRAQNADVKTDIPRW

Kd: > 20 µM
Compound: Cc1cc2nc3c(=O)[nH]c(=O)nc-3n(C[C@H](O)[C@H](O)[C@H](O)COP(=O)(O)O)c2cc1C [E101a]
